Data: patent publication US11059795B2, “Androgen receptor modulators and methods for their use” (ESSA Pharma, Inc., priority 2018, dated 2021)

Columns and labels:
[1] = Microsomal stability assay, mouse liver microsomes; format: in vitro ADME; details: 1 μM compound, 0.5 mg/mL protein, 37° C.; for microsomal CLint at 1 μM: mouse, liver microsomes, pH 7.4, mouse liver microsomes, read-out: MLM +30/− NADPH: Clint (μL/min/mg protein)
Summary of the method: (§1)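 Compound at 1 μM was incubated at 37° C with 0.5 mg/mL liver microsomes and 1 mM NADPH and/or 1 mM UDPGA (with alamethicin) in 100 mM potassium phosphate pH 7.4, 3 mM MgCl2. Samples were taken at 0, 15, 30 and 60 min and measured by LC/MS/MS. t½ came from compound loss relative to 0 min, and Clint was scaled with 45 mg microsomal protein/g liver.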

[2] = Hepatocyte stability assay, mouse hepatocytes; format: in vitro ADME; details: 1 μM compound, 0.5 million cells/mL, 37° C.; for hepatocyte CLint at 1 μM: mouse, cryopreserved hepatocytes, read-out: MH +/− NADPH: Clint (μL/min/million cells)
Summary of the method: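 Cryopreserved rat, human or mouse hepatocytes at 0.5 million cells/mL in DMEM with 1 μM compound, 37° C, sampled at 0, 60, 120 and 180 min and quenched with acetonitrile/formic acid. Parent loss vs 0-min by LC/MS/MS gave t½, and Clint = 0.693/t½ × mL incubation/million cells.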

[3] = Microsomal stability assay, human liver microsomes; format: in vitro ADME; details: pH 7.4, 1 μM compound, 0.5 mg/mL protein, 37° C., read-out: HLM +/− NADPH: Clint (μL/min/mg protein)
Summary of the method: as §1

[4] = target: T1, androgen receptor (AR) (Homo sapiens, UniProt P10275, T878A); assay: Androgen-induced PSA (6.1 kb)-luciferase reporter assay in LNCaP cells; format: cell-based; details: LNCaP cells transfected with PSA (6.1 kb)-luciferase reporter, R1881 1 nM, 24 h; read-out: PSA-Luc IC50 Range
T1 construct: LNCaP cells were transiently transfected with the PSA (6.1 kb)-luciferase reporter for 24 h; endogenous in cells; host or cells: LNCaP
T1 sequence (P10275 1-920 T878A): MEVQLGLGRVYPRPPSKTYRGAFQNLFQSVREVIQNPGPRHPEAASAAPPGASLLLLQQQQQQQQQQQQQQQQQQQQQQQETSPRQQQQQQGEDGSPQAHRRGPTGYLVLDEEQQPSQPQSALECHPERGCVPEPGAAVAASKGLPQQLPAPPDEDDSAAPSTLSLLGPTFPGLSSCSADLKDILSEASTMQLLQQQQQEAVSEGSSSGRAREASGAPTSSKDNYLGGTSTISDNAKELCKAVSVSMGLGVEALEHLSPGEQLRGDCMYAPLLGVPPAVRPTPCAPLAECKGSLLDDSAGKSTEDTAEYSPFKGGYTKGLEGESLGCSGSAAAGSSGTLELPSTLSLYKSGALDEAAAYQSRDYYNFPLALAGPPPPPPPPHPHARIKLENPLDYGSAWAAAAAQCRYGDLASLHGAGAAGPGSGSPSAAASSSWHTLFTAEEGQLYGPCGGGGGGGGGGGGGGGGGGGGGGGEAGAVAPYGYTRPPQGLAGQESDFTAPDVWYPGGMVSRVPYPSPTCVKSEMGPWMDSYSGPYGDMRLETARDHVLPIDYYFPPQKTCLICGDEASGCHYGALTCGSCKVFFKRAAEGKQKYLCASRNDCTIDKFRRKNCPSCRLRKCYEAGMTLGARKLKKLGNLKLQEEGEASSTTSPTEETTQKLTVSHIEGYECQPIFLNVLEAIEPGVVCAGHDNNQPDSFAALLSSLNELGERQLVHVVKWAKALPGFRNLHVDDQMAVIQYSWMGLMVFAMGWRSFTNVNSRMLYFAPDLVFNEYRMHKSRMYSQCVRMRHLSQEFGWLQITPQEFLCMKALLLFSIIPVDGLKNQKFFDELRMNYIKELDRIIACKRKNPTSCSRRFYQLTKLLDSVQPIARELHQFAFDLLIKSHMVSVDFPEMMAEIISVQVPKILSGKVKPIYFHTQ
Summary of the method: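 Read-out is firefly luminescence (10 s) in LNCaP lysates, normalized to protein, from an ARE-containing PSA (6.1 kb)-luciferase reporter driven by androgen.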

Compound	microsomal CLint at 1 μM [1]	hepatocyte CLint at 1 μM [2]	microsomal CLint at 1 μM [3]	IC50 [4]	MLM +30/− NADPH: Clint (μL/min/mg protein) ([1]; mouse liver microsomes)	MH +/− NADPH: Clint (μL/min/million cells) [2]
CC(C)(c1ccc(OCc2[nH]cnc2S(C)(=O)=O)cc1)c1cc(Cl)c(OCCCl)c(Cl)c1 [Compound A71]	< 12 µL/min/mg	4 to 18 µL/min/1e6 cells	12 to 48 µL/min/mg	500 to 2000 nM		
Cc1nc(S(C)(=O)=O)oc1COc1ccc(C(C)(C)c2cc(Cl)c(OCCCl)c(C#N)c2)cc1 [Compound A81]	≥ 48 µL/min/mg	≥ 18 µL/min/1e6 cells	12 to 48 µL/min/mg	< 500 nM		
CC(Oc1ccc(C(C)(C)c2cc(Cl)c(OCCCl)c(C#N)c2)cc1)c1ccnc(S(C)(=O)=O)n1 (stereo not shown) [Compound A147]	≥ 48 µL/min/mg	≥ 18 µL/min/1e6 cells	12 to 48 µL/min/mg	> 2000 nM		
CC(=O)Nc1nccc(C(C)Oc2ccc(C(C)(C)c3cc(Cl)c(OCCCl)c(C#N)c3)cc2)n1 (stereo not shown) [Compound A145]	≥ 48 µL/min/mg	≥ 18 µL/min/1e6 cells	≥ 48 µL/min/mg	500 to 2000 nM		
CC(C)(c1ccc(OCc2nc(C(N)=O)cs2)cc1)c1cc(Cl)c(OCCCl)c(C#N)c1 [Compound A171, 2-((4-(2-(3-chloro-4-(2-chloroethoxy)-5-cyanophenyl)propan-2-yl)phenoxy)methyl)thiazole-4-carboxamide]	< 12 µL/min/mg	4 to 18 µL/min/1e6 cells	< 12 µL/min/mg	500 to 2000 nM		
CC(C)(c1ccc(CCc2ccnc(N)n2)cc1)c1cc(Cl)c(OCCCl)c(C#N)c1 [Compound A121]	12 to 48 µL/min/mg	4 to 18 µL/min/1e6 cells	12 to 48 µL/min/mg	500 to 2000 nM		
CC(C)S(=O)(=O)c1nc(COc2ccc(C(C)(C)c3cc(Cl)c(OCCCl)c(C#N)c3)cc2)co1 [Compound A125]	≥ 48 µL/min/mg	≥ 18 µL/min/1e6 cells	< 12 µL/min/mg	< 500 nM		
C[C@](O)(c1ccc(OCc2ocnc2S(C)(=O)=O)cc1)c1cc(Cl)c(OCCCl)c(C#N)c1 [Compound A108]	≥ 48 µL/min/mg	≥ 18 µL/min/1e6 cells	< 12 µL/min/mg	500 to 2000 nM		
CC(C)(c1ccc(OCc2ccnc(N3CCCS3(=O)=O)n2)cc1)c1cc(Cl)c(OCCCl)c(C#N)c1 [Compound A199]	≥ 48 µL/min/mg	4 to 18 µL/min/1e6 cells	< 12 µL/min/mg	< 500 nM		
CC(C)(c1ccc(OCc2nc(NS(C)(=O)=O)nc3c2CCOC3)cc1)c1cc(Cl)c(OCCCl)c(C#N)c1 [Compound A190]	≥ 48 µL/min/mg	≥ 18 µL/min/1e6 cells	< 12 µL/min/mg	500 to 2000 nM		
CC(Oc1ccc(C(C)(C)c2cc(Cl)c(OCCCl)c(C#N)c2)cc1)c1ncoc1S(C)(=O)=O (stereo not shown) [Compound A79]	≥ 48 µL/min/mg	≥ 18 µL/min/1e6 cells	< 12 µL/min/mg	< 500 nM		
CC(C)(c1ccc(OCc2cnc(Cl)o2)cc1)c1cc(Cl)c(OCCCl)c(C#N)c1 [Compound A115]	< 12 µL/min/mg	≥ 18 µL/min/1e6 cells	< 12 µL/min/mg	< 500 nM		
CC(Oc1ccc(C(C)(C)c2cc(Cl)c(OCCCl)c(C#N)c2)cc1)c1coc(NS(C)(=O)=O)n1 (stereo not shown) [Compound A91]	< 12 µL/min/mg	4 to 18 µL/min/1e6 cells	< 12 µL/min/mg	500 to 2000 nM		
CC(C)(c1ccc(OCc2cnc(C(N)=O)o2)cc1)c1cc(Cl)c(CCCCl)c(C#N)c1 [Compound A114]	12 to 48 µL/min/mg	≥ 18 µL/min/1e6 cells	< 12 µL/min/mg	500 to 2000 nM		
CC(=O)NN1C(=O)N(c2ccc(C(C)(C)c3cc(Cl)c(OCCCl)c(Cl)c3)cc2)C(=O)C1(C)C [Compound B5]	< 12 µL/min/mg	4 to 18 µL/min/1e6 cells	< 12 µL/min/mg	500 to 2000 nM		
CC(N)(c1ccc(OCc2ocnc2S(C)(=O)=O)cc1)c1cc(Cl)c(OCCCl)c(C#N)c1 (stereo not shown) [Compound A105]	≥ 48 µL/min/mg	≥ 18 µL/min/1e6 cells	12 to 48 µL/min/mg	> 2000 nM		
CC(Oc1ccc(C(C)(C)c2cc(Cl)c(OCCCl)c(C#N)c2)cc1)c1ocnc1S(C)(=O)=O (stereo not shown) [Compound A87]	12 to 48 µL/min/mg	≥ 18 µL/min/1e6 cells	< 12 µL/min/mg	500 to 2000 nM		
CC(Oc1ccc(C(C)(C)c2cc(Cl)c(OCCCl)c(C#N)c2)cc1)c1ncc(S(C)(=O)=O)o1 (stereo not shown) [Compound A90]	≥ 48 µL/min/mg	≥ 18 µL/min/1e6 cells	< 12 µL/min/mg	500 to 2000 nM		
CSc1nc(COc2ccc(C(C)(C)c3cc(Cl)c(OCCCl)c(C#N)c3)cc2)c(C)o1 [Compound A118]	≥ 48 µL/min/mg	4 to 18 µL/min/1e6 cells	≥ 48 µL/min/mg	500 to 2000 nM		
Cc1cc(C(C)(C)c2ccc(OC(C)c3ncc(S(C)(=O)=O)o3)cc2)cc(C#N)c1OCCCl (stereo not shown) [Compound A89]	≥ 48 µL/min/mg	≥ 18 µL/min/1e6 cells	12 to 48 µL/min/mg	500 to 2000 nM		

Now from value to compound, other results behind:

microsomal CLint at 1 μM [1]	hepatocyte CLint at 1 μM [2]	microsomal CLint at 1 μM [3]	IC50 [4]	Compound	MLM +30/− NADPH: Clint (μL/min/mg protein) ([1]; mouse liver microsomes)	MH +/− NADPH: Clint (μL/min/million cells) [2]
12 to 48 µL/min/mg	4 to 18 µL/min/1e6 cells	≥ 48 µL/min/mg	500 to 2000 nM	CC(C)(c1ccc(OCc2nnccc2NS(C)(=O)=O)cc1)c1cc(Cl)c(OCCCl)c(C#N)c1 [Compound A101]		
		12 to 48 µL/min/mg	< 500 nM	CC(C)(c1ccc(OCc2nccnc2NS(C)(=O)=O)cc1)c1cc(Cl)c(OCCCl)c(C#N)c1 [Compound A103]	** (** represents Cl in the range of 12-48 μL/min/mg protein)	*** (*** represent Cl < 4 cells μL/min/million cells)
12 to 48 µL/min/mg	≥ 18 µL/min/1e6 cells	12 to 48 µL/min/mg	< 500 nM	CC(Oc1ccc(C(C)(C)c2cc(Cl)c(OCCCl)c(C#N)c2)cc1)c1cnc(NS(C)(=O)=O)o1 (stereo not shown) [Compound A92]		
≥ 48 µL/min/mg	≥ 18 µL/min/1e6 cells	< 12 µL/min/mg	> 2000 nM	CC(C)(c1ccc(OCc2ccnc(S(C)(=O)=O)n2)cc1)c1cc(Cl)c(OCCCl)c(C#N)c1 [Compound A124]		
< 12 µL/min/mg	< 4 µL/min/1e6 cells	< 12 µL/min/mg	500 to 2000 nM	CC(C)(c1ccc(OCc2cc(CN)nc(NS(C)(=O)=O)n2)cc1)c1cc(Cl)c(OCCCl)c(C#N)c1 [Compound A164, N-(4-(aminomethyl)-6-((4-(2-(3-chloro-4-(2-chloroethoxy)-5-cyanophenyl)propan-2-yl)phenoxy)methyl)pyrimidin-2-yl)methanesulfonamide]		
12 to 48 µL/min/mg	4 to 18 µL/min/1e6 cells	< 12 µL/min/mg	500 to 2000 nM	CC(C)(c1ccc(OCc2ncc(S(C)(=O)=O)o2)cc1)c1cc(Cl)c(OCCCl)c(C#N)c1 [Compound A153]		
12 to 48 µL/min/mg	≥ 18 µL/min/1e6 cells	12 to 48 µL/min/mg	< 500 nM	CC(C)(c1ccc(OCc2ncc(NS(C)(=O)=O)s2)cc1)c1cc(Cl)c(OCCCl)c(C#N)c1 [Compound A135]		
≥ 48 µL/min/mg	≥ 18 µL/min/1e6 cells	12 to 48 µL/min/mg	< 500 nM	CC(C)S(=O)(=O)c1ncc(COc2ccc(C(C)(C)c3cc(Cl)c(OCCCl)c(C#N)c3)cc2)o1 [Compound A142]		
